From patent publication US8173133B2, “Acyl pseudodipeptides which carry a functionalized auxiliary arm” (OM Pharma, priority 1999, dated 2012)
Converted amounts (≈) assume the structure as drawn.

What was measured:
bone marrow stem cells = assay: bone marrow stem cell proliferation (XTT); format: cell-based, C57/BL6 mice; conditions: for Max amplitude: 7 days, XTT 492 nm; for Min amplitude: blank ± 3× standard deviation; for Max concentration: concentration at maximum amplitude; for EC50 conc: concentration corresponding to 50% of maximum amplitude; for Min concentration: lowest concentration inducing a significant proliferation
Text: 6-week old male C57/BL6 mice are killed by CO2 inhalation. The hip, femur, tibia and hind leg bones are removed. The marrow is extracted from the bone lumen by injecting Dulbecco's Modified Eagle Medium (DH medium) from the end portions which had been excised. The stem cells are washed and suspended again in DH medium supplemented with 20% foetal calf serum (FCS) The cell concentration is adjusted to 500000 cells/ml.
Products previously dissolved in DH medium supplemented with 20% FCS, amino acids and antibiotics are serially diluted directly into a microtiter plate. The products are tested in triplicate and each microtiter plate includes a negative control containing plain medium. The final volume in each well is 100 μl.
100 μl of the cell suspension are added to diluted solutions of products and the cells are incubated for 7 days in an incubator at 37° C., under 8% CO2 and a moisture saturated atmosphere. Cell proliferation is determined by measuring the […] of a chromogenic substrate XTT (2,3-bis[2-methoxy-4-nitro-5-sulphophenyl]-2H-tetrazolium-5-carboxanilide) in mitochondria of viable cells.
At the end of the incubation period, 50 μl of the XTT substrate solution (1 mg/ml XTT+0.008 mg/ml phenazine methosulfate) are added to each well. After an 8 hour incubation period at 37° C. under 8% CO2 in a moisture saturated incubator, the microtiter plates are read with a spectrophotometer at 492 nm against a reference sample at 690 nm.
Results are expressed as mean value±standard deviation and plotted as a dose versus response curve. Values for a negative control composed of DH medium (mean±standard deviation) are also graphically shown.
From this dose versus response curve, 3 curve variables are computed:
Max: maximum curve amplitude and corresponding concentration
EC50: concentration corresponding to 50% of maximum amplitude
Min: lowest concentration inducing a significant proliferation corresponding to the blank±3× standard deviation value
Concentration values corresponding to EC50 and Min are determined from line segments joining different points on the curve.
If the curve has no plateau phase but an ascending configuration for the highest concentration being tested, a “>” sign is shown before Max and EC50 values.

[1] = test system: human peripheral blood mononuclear cells; assay: α TNF production by human peripheral blood mononuclear cells; format: cell-based; conditions: for α TNF produced: 18 hours; for α TNF production: up to 100 μg/ml
How it was run: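 Ficoll-isolated PBMC from 6 healthy donors (2×10^6 viable cells/ml, RPMI-1640, 10% FCS) exposed in triplicate for 18 h at 37 °C, 5% CO2 to compounds diluted 100-, 10- or 1-fold. Secreted TNF-α measured by chemiluminescent ELISA on 4-fold diluted supernatants against a 0.7–7000 pg/ml standard curve; values in pg/ml.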

[2] = test system: human peripheral blood mononuclear cells; assay: inhibition of E. coli LPS-induced α TNF production in human peripheral blood mononuclear cells; format: cell-based; conditions: product 10 μg/ml; for 50% inhibition LPS: LPS concentration at which α TNF production is 50% of control; for max. Inhibition LPS: LPS concentration corresponding to maximum inhibition
How it was run: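 PBMC from 6 donors (2×10^6 cells/ml, RPMI/10% FCS) were preincubated 1 h with product (10 μg/ml solution), then 18 h at 37 °C with 10-fold E. coli LPS dilutions (1–0.00001 μg/ml). Secreted TNFα by chemiluminescent ELISA; value is the LPS concentration at 50% inhibition by linear interpolation, plus maximum inhibition.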

| SMILES | Max amplitude (bone marrow stem cells) [O.D] | Min amplitude (bone marrow stem cells) | Max concentration (bone marrow stem cells) [µg/mL] | EC50 conc (bone marrow stem cells) [µg/mL] | Min concentration (bone marrow stem cells) [µg/mL] | α TNF produced ([1]; product 1 μg/ml) [pg/mL] | α TNF produced ([1]; product 10 μg/ml) [pg/mL] | α TNF produced ([1]; product 100 μg/ml) [pg/mL] | max. Inhibition [2] [%] | 50% inhibition LPS [2] [µg/mL] | max. Inhibition LPS [2] [µg/mL] | concentration at which a significant α TNF production level is induced ([1]; only at this concentration) [µg/mL] | α TNF production [1] |
| --- | --- | --- | --- | --- | --- | --- | --- | --- | --- | --- | --- | --- | --- |
| CCCCCCCCCCCC(=O)O[C@H](CCCCCCCCCCC)CC(=O)N[C@H](CC(=O)O)C(=O)NCCC[C@H](COC(=O)CCCCC(O)CO)NC(=O)C[C@H](O)CCCCCCCCCCC (stereo partly drawn) [OM-197-MC-FV5, N—[(R)-3-dodecanoyloxytetradecanoylamino]-D-aspartic acid, α-N-{(4R)-5-hydroxy-4-[(R)-3-hydroxytetra-decanoylamino]-pentyl}amide 5-O-(6,7-dihydroxyheptanoate)] | 1.75 | 0.80 O.D | 50 | 32.0 (≈ 31.6 µM) | 8.20 | 0 | 104 | 116 | 100 | >1 | 0.016 |  |  |
| CCCCCCCCCCCC(=O)O[C@H](CCCCCCCCCCC)CC(=O)N[C@H](CC(=O)O)C(=O)NCCC[C@H](COC(=O)CCCCCO)NC(=O)C[C@H](O)CCCCCCCCCCC [OM-197-MC-FV7, N—[(R)-3-dodecanoyloxytetradecanoylamino]-D-aspartic acid, α-N-{(4R)-5-hydroxy-4-[(R)-3-hydroxytetradecanoylamino]pentyl}amide 5-O-(6-hydroxyhexanoate)] | > 1.83 | 0.80 O.D | > 100 | > 33.1 | 6.58 | 0 | 80 | 76 | 100 | >1 | 0.00035 |  |  |
| CCCCCCCCCCCC(=O)O[C@H](CCCCCCCCCCC)CC(=O)N[C@H](CC(=O)O)C(=O)NCCC[C@H](COP(=O)(O)O)NC(=O)C[C@H](O)CCCCCCCCCCC [OM-197-MC-MP, N—[(R)-3-dodecanoyloxytetradecanoyl]-D-aspartic acid, α-N-{(4R)-5-dihydroxyphosphoryloxy-4-[(R)-3-hydroxytetradecanoyl-amino]pentyl}amide] | > 1.60 | 0.80 O.D | > 160 | > 6.5 | 0.77 | 0 | 0 | 72 | 100 | 0.19 | 0.001 | 100 |  |
| CCCCCCCCCCCC(=O)O[C@H](CCCCCCCCCCC)CC(=O)N[C@H](CC(=O)O)C(=O)NCCC[C@H](COC(=O)CCC(=O)O)NC(=O)C[C@H](O)CCCCCCCCCCC [OM-197-MC-Succ] | 2.16 | 0.80 O.D | 50 | 24.7 (≈ 25.5 µM) | 2.95 | 0 | 96 | 176 | 100 | 1 | 0.018 |  |  |
| CCCCCCCCCCCC(=O)O[C@H](CCCCCCCCCCC)CC(=O)N[C@@H](CCOP(=O)(O)O)C(=O)NCCC[C@H](COC(=O)CCCCCO)NC(=O)C[C@H](O)CCCCCCCCCCC [OM-197-MP-AC (S, R), (3S,9R)-3-[(R)-3-dodecanoyloxytetradecanoylamino]-4-oxo-5-aza-9-[(R)-3-hydroxytetradecanoylamino]-1,10-diol 1-dihydrogenphosphate 10-(6-hydroxyhexanoate)] | 1.22 | 0.80 O.D | 6.25 | 2.62 (≈ 2.5 µM) | 1.17 | 488 | 124 | 80 | 100 | >1 | 0.00002 |  |  |
| CCCCCCCCCCC[C@@H](O)CC(=O)N[C@H](CCCNC(=O)[C@@H](CC(=O)O)NC(=O)C(CCCCCC)OC(=O)CCCCCCCCC)COC(=O)CCCCCN (stereo partly drawn) [OM-197-N′(C10-20C8)-MC-AC, N-(2-decanoyloxyoctanoyl)-D-aspartic acid, α-N-{(4R)-5-(6-aminohexanoyloxy)-4-[(R)-3-hydroxytetradecanoylamino]-pentyl}amide] | 0.75 | 0.80/nd O.D | 6.25 |  |  | 0 | 0 | 0 | 85 | 0.0009 | <0.00001 |  | do not induce any αTNF production |
| CCCCCCCCCCC[C@@H](O)CC(=O)N[C@H](CCCNC(=O)[C@@H](CC(=O)O)NC(C)=O)COC(=O)CCCCCN [OM-197-N′C2-MC-AC, N-acetyl-D-aspartic acid, α-N-{(4R)-5-(6-aminohexanoyloxy)-4-[(R)-3-hydroxytetradecanoylamino]-pentyl}amide] | 0.75 | 0.80/nd O.D | 1.56 |  |  | 0 | 0 | 0 | 100 | 0.0003 | 0.00001 |  | do not induce any αTNF production |
